Source: PMC2528936, “Snake Cathelicidin from Bungarus fasciatus Is a Potent Peptide Antibiotics” (PLoS ONE, 2008)
In brackets after ≈: the same amount, converted by molar mass. Where two headings read alike, the source gives them in different places. Where no end group is shown, it is not given here.

Columns and labels:
[1] = Serum stability, residual antimicrobial activity; assay type: in vitro ADME; conditions: 100 µg/ml peptide, 90% fresh normal human serum, 37°C, 0-24 hours; residual activity against E. coli 08A866 by radial diffusion assay
Description: For cathelicidin-BF, antimicrobial activities against E. coli 08A866 could not be detected after 3 h-incubation, while cathelicidin-BF15 could keep its antimicrobial activity up to 10 h in 90% fresh normal human serum.

[2] = system: Salmonella typhi (IS, DR); assay: MIC determination; assay type: cell-based; conditions: clinically isolated strain, drug resistance for ampicillin and benzylpenicillin; liquid LB broth; mean of three independent experiments in duplicates; ND = no detectable activity
[3] = system: mouse macrophage (RAW264.7); conditions: up to 400 µg/ml, data not shown
Description: (§1) Cytotoxicity and serum stability were measured according the methods described by Mygind et al. The details were provided in the Materials and Methods S1.
(§2) Hemolysis assays were undertaken using human red blood cells in liquid medium as our previous reoprts. Serial dilutions of the peptide were used, and after incubation at 37 °C for 30 min, the cells were centrifuged and the absorbance in the supernatant was measured at 540 nm. Maximum hemolysis was determined by adding 1% Triton X-100 to a sample of cells. Cytotoxicity was measured according the methods described by Mygind et al, using mouse macrophage (RAW264.7) and tumor cell (HepG2). Serum stability was checked by incubating 100 µg/ml cathelicidin-BF with 90% fresh normal human serum at 37 °C for 0, 1, 2, 3, 6, and 24 hours. Residual antimicrobial activities were measured by performing radial diffusion assays with E. coli 08A866 as described by Mygind et al.

[4] = system: human liver tumor cell (HepG2); conditions: up to 400 µg/ml, data not shown
Description: as §1, §2

Serratia marcescens MA = conditions: liquid LB broth, no visible growth; mean of three independent experiments in duplicates; ND = no detectable activity
Description: (§3) Antimicrobial activities of cathelicidin-BF and cathelicidin-BF15 ([…]) were tested according to our previous methods [39]–[42]. […] The details were provided in the Materials and Methods S1.
(§4) Standard and clinically isolated microorganism strains were used for antimicrobial assays. Bacteria were first grown in LB (Luria-Bertani) broth to an OD600 nm of 0.8. A 10 µl aliquot of the bacteria was then taken and added to 8 ml of fresh LB broth with 0.7% agar and poured over a 90 mm Petri dish containing 25 ml of 1.5% agar in LB broth. After the top agar hardened, a 20 µl aliquot of the test sample filtered on a 0.22 µm Millipore filter was dropped onto the surface of the top agar and completely dried before being incubated overnight at 37 °C. If the sample examined had antimicrobial activity, a clear zone would be formed on the surface of the top agar representing inhibition of bacterial growth. Minimal inhibitory concentration (MIC) was determined in liquid LB medium by incubating the bacteria in LB broth with variable amounts of the sample tested. The MIC at which no visible growth occurred was recorded. In the assays of anti-fungi activity, for strains of Aspergillus terreus, A. niculans, and Chaetomium globosum, the fungal spore concentration was first counted under a microscope. The fungi with an initial concentration of 10^5 spores/ml were cultured with variable amounts of the sample tested in yeast extract-peptone-dextrose broth.

Serratia marcescens SA = conditions: liquid LB broth, no visible growth; mean of three independent experiments in duplicates; ND = no detectable activity
Description: as §3, §4

[5] = system: E. coli 08040726 (IS, DR); conditions: clinically isolated strain, drug resistance for ampicillin and benzylpenicillin; liquid LB broth; mean of three independent experiments in duplicates; ND = no detectable activity
Description: as §3, §4

[6] = system: K. pneumoniae 08040202 (IS, DR); conditions: clinically isolated strain, drug resistance for ampicillin and benzylpenicillin; liquid LB broth; mean of three independent experiments in duplicates; ND = no detectable activity
Description: as §3, §4

[7] = system: S. aureus 08032706 (IS, DR); conditions: clinically isolated strain, drug resistance for ampicillin and benzylpenicillin; liquid LB broth; mean of three independent experiments in duplicates; ND = no detectable activity
Description: as §3, §4

Chaetomium globosum = conditions: saprophytic fungus; 10^5 spores/ml, yeast extract-peptone-dextrose broth; mean of three independent experiments in duplicates; ND = no detectable activity
Description: as §3, §4

[8] = system: S. aureus 08032810 (IS, DR); conditions: clinically isolated strain, drug resistance for ampicillin and benzylpenicillin; liquid LB broth; mean of three independent experiments in duplicates; ND = no detectable activity
Description: as §3, §4

[9] = system: P.aeruginosa 08031205(IS, DR); conditions: clinically isolated strain, drug resistance for ampicillin and benzylpenicillin; liquid LB broth; mean of three independent experiments in duplicates; ND = no detectable activity
Description: as §3, §4

Aspergillus niculans = conditions: saprophytic fungus; 10^5 spores/ml, yeast extract-peptone-dextrose broth; mean of three independent experiments in duplicates; ND = no detectable activity
Description: as §3, §4

[10] = system: S. aureus 08A875 (IS, DR); conditions: clinically isolated strain, drug resistance for ampicillin and benzylpenicillin; liquid LB broth; mean of three independent experiments in duplicates; ND = no detectable activity
Description: as §3, §4

[11] = system: Aspergillus terreus GIM3.34; conditions: saprophytic fungus; 10^5 spores/ml, yeast extract-peptone-dextrose broth; mean of three independent experiments in duplicates; ND = no detectable activity
Description: as §3, §4

E. coli 08A852 (IS, DR) = conditions: clinically isolated strain, drug resistance for ampicillin and benzylpenicillin; liquid LB broth; mean of three independent experiments in duplicates; ND = no detectable activity
Description: as §3, §4

[12] = system: Klebsiella pneumoniae (IS, DR); conditions: clinically isolated strain, drug resistance for ampicillin and benzylpenicillin; liquid LB broth; mean of three independent experiments in duplicates; ND = no detectable activity
Description: as §3, §4

[13] = system: S. aureus 08031013 (IS, DR); conditions: clinically isolated strain, drug resistance for ampicillin and benzylpenicillin; liquid LB broth; mean of three independent experiments in duplicates; ND = no detectable activity
Description: as §3, §4

[14] = system: P.aeruginosa 08031014(IS, DR); conditions: clinically isolated strain, drug resistance for ampicillin and benzylpenicillin; liquid LB broth; mean of three independent experiments in duplicates; ND = no detectable activity
Description: as §3, §4

[15] = system: K. pneumoniae 08031012 (IS, DR); conditions: clinically isolated strain, drug resistance for ampicillin and benzylpenicillin; liquid LB broth; mean of three independent experiments in duplicates; ND = no detectable activity
Description: as §3, §4

[16] = system: K. pneumoniae 08040724 (IS, DR); conditions: clinically isolated strain, drug resistance for ampicillin and benzylpenicillin; liquid LB broth; mean of three independent experiments in duplicates; ND = no detectable activity
Description: as §3, §4

E. coli 08A866(IS, DR) = conditions: clinically isolated strain, drug resistance for ampicillin and benzylpenicillin; liquid LB broth; mean of three independent experiments in duplicates; ND = no detectable activity
Description: as §3, §4

[17] = system: S. aureus 08031002 (IS, DR); conditions: clinically isolated strain, drug resistance for ampicillin and benzylpenicillin; liquid LB broth; mean of three independent experiments in duplicates; ND = no detectable activity
Description: as §3, §4

[18] = system: Enterococcus faecium (IS, DR); conditions: clinically isolated strain, drug resistance for ampicillin and benzylpenicillin; liquid LB broth; mean of three independent experiments in duplicates; ND = no detectable activity
Description: as §3, §4

[19] = system: S. aureus 08A865 (IS, DR); conditions: clinically isolated strain, drug resistance for ampicillin and benzylpenicillin; liquid LB broth; mean of three independent experiments in duplicates; ND = no detectable activity
Description: as §3, §4

[20] = system: E. coli 08040722 (IS, DR); conditions: clinically isolated strain, drug resistance for ampicillin and benzylpenicillin; liquid LB broth; mean of three independent experiments in duplicates; ND = no detectable activity
Description: as §3, §4

P. aeruginosa (IS, DR) = conditions: clinically isolated strain, drug resistance for ampicillin and benzylpenicillin; liquid LB broth; mean of three independent experiments in duplicates; ND = no detectable activity
Description: as §3, §4

Pseudomonas luteola = conditions: liquid LB broth, no visible growth; mean of three independent experiments in duplicates; ND = no detectable activity
Description: as §3, §4

[21] = system: Sacharibacillus kuerlensis; conditions: liquid LB broth, no visible growth; mean of three independent experiments in duplicates; ND = no detectable activity
Description: as §3, §4

[22] = system: Sphingobacterium siyangense; conditions: liquid LB broth, no visible growth; mean of three independent experiments in duplicates; ND = no detectable activity
Description: as §3, §4

[23] = system: E. coli 08032813 (IS, DR); conditions: clinically isolated strain, drug resistance for ampicillin and benzylpenicillin; liquid LB broth; mean of three independent experiments in duplicates; ND = no detectable activity
Description: as §3, §4

[24] = system: S. aureus 08032712 (IS, DR); conditions: clinically isolated strain, drug resistance for ampicillin and benzylpenicillin; liquid LB broth; mean of three independent experiments in duplicates; ND = no detectable activity
Description: as §3, §4

E. coli = conditions: for most of E. coli (standard and clinically isolated strains)
Description: as §3, §4

[25] = system: E. coli 08031017 (IS, DR); conditions: clinically isolated strain, drug resistance for ampicillin and benzylpenicillin; liquid LB broth; mean of three independent experiments in duplicates; ND = no detectable activity
Description: as §3, §4

[26] = system: Pseudomonas aeruginosa ATCC27853; assay: microbe, parasite or virus in culture
Description: as §3, §4

Bacillus pumilus = assay: microbe, parasite or virus in culture
Description: as §3, §4

Bacillus subtilis = assay: microbe, parasite or virus in culture
Description: as §3, §4

Bacillus cereus = assay: microbe, parasite or virus in culture
Description: as §3, §4

[27] = system: Staphylococcus aureus ATCC2592; assay: microbe, parasite or virus in culture
Description: as §3, §4

[28] = system: Acinetobacter calcoaceticus; assay: microbe, parasite or virus in culture
Description: as §3, §4

[29] = system: Escherichia coliATCC25922; assay: microbe, parasite or virus in culture
Description: as §3, §4

S. aureus ATCC25923 = assay: MIC determination; assay type: cell-based, Staphylococcus aureus; conditions: liquid LB broth, no visible growth; mean of three independent experiments in duplicates; ND = no detectable activity
[30] = system: Candida albicans ATCC2002; assay: microbe, parasite or virus in culture; conditions: Candida albicans
Description: as §3, §4

[31] = system: K. pneumoniae standard strain; assay: MIC determination, standard strain; assay type: cell-based; conditions: Klebsiella pneumoniae
Description: as §3
as §4, with “The fungi with an initial concentration of 10^5 spores/ml were cultured with variable amounts of the sample tested in yeast extract-peptone-dextrose broth.” left out

[32] = standard strain, liquid LB broth, no visible growth, mean of three independent experiments in duplicates, ND = no detectable activity
[33] = liquid LB broth, no visible growth, mean of three independent experiments in duplicates, ND = no detectable activity

With “KFFRKLKKSVKKRAKEFFKKPRVIGVSIPF [cathelicidin-BF]” the “incubation time after which antimicrobial activities could not be detected” value [1] was 3 h, the MIC [2] was 1.2 µg/mL and the cytotoxicity [3] was “neither cytotoxic”. For the same compound, the cytotoxicity ([3]; listed as Cathelicidin-BF) was “No hemolytic and cytotoxic activity”, the cytotoxicity [4] was “neither cytotoxic” and the cytotoxicity ([4]; listed as Cathelicidin-BF) was “No hemolytic and cytotoxic activity”. For the same compound, the MIC (Serratia marcescens MA) was >400 µg/mL, the MIC (Serratia marcescens SA) was >400 µg/mL and the MIC [5] was 0.6 µg/mL. The MIC [6] was 0.6 µg/mL, the MIC [7] was >100 µg/mL and the MIC (Chaetomium globosum) was 37.5 µg/mL. The MIC [8] was >100 µg/mL, the MIC [9] was 9.4 µg/mL and the MIC (Aspergillus niculans) was 18.7 µg/mL. It also gave an MIC [10] of 75 µg/mL, an MIC [11] of 18.7 µg/mL and an MIC (E. coli 08A852 (IS, DR)) of 1.2 µg/mL. The MIC [12] was 4.7 µg/mL, the MIC [13] was >100 µg/mL and the MIC [14] was 18.7 µg/mL. The MIC [15] was 9.4 µg/mL, the MIC [16] was 0.3 µg/mL and the MIC (E. coli 08A866(IS, DR)) was 0.6 µg/mL. The MIC [17] was >100 µg/mL, the MIC [18] was 150 µg/mL and the MIC [19] was >400 µg/mL. It also gave an MIC [20] of 0.6 µg/mL, an MIC (P. aeruginosa (IS, DR)) of 2.3 µg/mL and an MIC (Pseudomonas luteola) of 1.2 µg/mL. For the same compound, the MIC [21] was 4.7 µg/mL, the MIC [22] was 9.4 µg/mL and the MIC [23] was 2.3 µg/mL. The MIC [24] was >100 µg/mL, the MIC (E. coli) was “lower than 2.3 µg/ml” and the MIC [25] was 2.3 µg/mL. The MIC [26, 32] was 1.2 µg/mL, the MIC (Bacillus pumilus; [33]) was 9.4 µg/mL and the MIC (Bacillus subtilis; [33]) was 9.4 µg/mL. For the same compound, the MIC (Bacillus cereus; [33]) was 1.2 µg/mL, the MIC [27, 32] was 4.7 µg/mL and the MIC [28, 33] was 2.3 µg/mL. The MIC [29, 32] was 2.3 µg/mL and the MIC (S. aureus ATCC25923) was >400 µg/mL.

For `CC1(C)S[C@@H]2[C@H](NC(=O)[C@H](N)c3ccccc3)C(=O)N2[C@H]1C(=O)O` [ampicillin], the MIC (Chaetomium globosum) was “no effect”, the MIC (Aspergillus niculans) was “no effect” and the MIC [11] was “no effect”. It also gave an MIC [30] of 0.3 µg/mL (≈ 0.859 µM), an MIC ([26]; Pseudomonas aeruginosa, ATCC27853) of 150 µg/mL (≈ 429 µM) and an MIC (Bacillus pumilus; Bacillus pumilus) of 0.15 µg/mL (≈ 0.429 µM). For the same compound, the MIC (Bacillus subtilis; Bacillus subtilis) was 0.02 µg/mL (≈ 0.0572 µM), the MIC (Bacillus cereus; Bacillus cereus) was 150 µg/mL (≈ 429 µM) and the MIC ([27]; Staphylococcus aureus, ATCC2592) was 0.15 µg/mL (≈ 0.429 µM). For the same compound, the MIC ([28]; Acinetobacter calcoaceticus) was 75 µg/mL (≈ 215 µM), the MIC ([29]; Escherichia, COLIATCC25922) was 18.7 µg/mL (≈ 53.5 µM) and the MIC [31] was 150 µg/mL (≈ 429 µM).
